Data on one compound can be found in patent publication US12318365B2, “Inhibition of dipeptide repeat proteins” (ALS Therapy Development Institute, priority 2019, dated 2025).

The test system of data set [1] is NSC-34 cells. Put plainly: LDH assay (cytotoxicity) in NSC-34 cells. It is filed as cell-based. The settings on record: for toxicity independently of GR and PR treatment: no DRP.
From the text: LDH Assay: The LDH assay is a colorimetric assay that measures cell toxicity and death. […] When cells lose membrane integrity, an enzyme found in living cells called lactate dehydrogenase (LDH) is released into the solution surrounding the dying cell. A form of programmed cell death, apoptosis, as well as other forms of cell death also ultimately lead to a cell's membrane being destroyed, resulting in a large release of LDH into the extracellular space. Thus, LDH is an excellent marker not only for necrosis, but for all instances of cell death. In an LDH assay, a sample of the solution surrounding the cell is isolated, and transferred to a plate containing an LDH reaction mixture. This reaction mixture contains a tetrazolium salt intermediate and other reaction constituents that, when exposed to LDH, convert the tetrazolium salt into a colored Formazan product. This Formazan product can be quantified spectrophotometrically. Greater absorbance readings correspond to more cell death.
One row on the top and bottom of the plate, and two columns on either side of the plate, were left without cells and contained culture medium only to minimize experimental well volume evaporation. After plating, cells were incubated for 24 h at 37° C., 5% CO2 prior to DRP and/or PRMT inhibitor addition. At time of DRP/PRMT inhibitor addition, desired doses of DRP for challenge and inhibitor for treatment were achieved by diluting aliquots of each stock in warm culture medium. During experiments where both PRMT inhibitors and DRPs were used, PRMT inhibitors were always applied to wells first, and followed by DRP application. […] Inhibitor toxicity controls were included as wells treated with the desired doses of drug for the experiment, but no DRP. DRP toxicity controls were included as wells only treated with the doses of DRP used for challenge. Once dosed, plates were incubated for 24 h at 37° C., 5% CO2 prior to running the WST-1 or LDH assay endpoints. Additional controls needed for each endpoint are specified in the “WST-1 Assay” and “LDH Assay” sections of these methods.
LDH Assay: Cells were plated and prepared using the steps described in the “Plating NSC-34 and Dosing with DRPs and PRMT Inhibitors” section of these methods. Other controls for this experiment included several sets of wells with only cells in culture medium (one triplicate designated for “untreated,” one triplicate designated for “lysed” positive control), and wells with culture medium only. An additional control added only to the transfer plate at time of testing was 5 μL LDH only. Testing was performed using colorimetric LDH-Cytotoxicity Assay Kit II (Abcam, Cambridge, MA, USA) per manufacturer's instructions. Final read at 450 nm was performed on a SpectraMax M3 Microplate Reader (Molecular Devices, San Jose, CA, USA). Data analysis included calculation of % LDH release using the following equation: […]
Experiments included three replicates per condition. Each experiment was repeated twice (executed three times total).
(§1) The following conditions were plated in triplicate.
Plates were incubated for 24 h at 37° C., 5% CO2. Cells were tested and data were analyzed by LDH assay.
Cells were plated in culture medium in 2 96-well plates at a density of 3.7×10^4 cells per well, and incubated overnight at 37° C., 5% CO2.
as §1
Cells were plated in culture medium in 2 96-well plates at a density of 3.7×10^4 cells per well, and incubated overnight at 37° C., 5% CO2. […]
The following conditions were plated in triplicate. […]

Data set [2] relates to asymmetrical arginine methylation of NSC-34 cells. Put plainly: Cellular asymmetric arginine methylation (800/700 fluorescence readout) in NSC-34 cells. The conditions noted are these: 24 hour treatment. It is filed as cell-based, Mouse. On the procedure:
On Day 0, NSC-34 Cells were plated in 48 wells of a 96 well plate, and CHO cells were plated in the other 48 wells of the same 96-well plate. NSC-34 cells were plated in DMEM/High glucose media. CHO cells were plated in Ham's F-12K (Kaighn's) Medium. Both cell lines were incubated overnight to reach approximately 50% confluency.
On Day 1, 24 wells of the NSC-34 cells and 24 wells of the CHO cells were treated with the following concentrations of MS023: 1 μM, 3 μM, 6 μM, 10 μM, 30 μM, and 60 μM. The cells were then incubated overnight.
On Day 2, 18 wells of the untreated NSC-34 cells and 18 wells of the untreated CHO cells were treated with the same concentrations of MS023 as those on Day 1. This left 6 wells of each cell line that never received MS023. Once MS023 was added, the cells were incubated overnight.
On Day 3, all media in the 96-well plate was removed and the cells were fixed with 3.7% Paraformaldehyde (PFA). Cells were then washed and permeabilized with 1×PBS/0.1% Triton X-100.
After removing the PBS/Triton wash, Odyssey Blocking Buffer (LI-COR, 927-40100) was applied to all wells and the plate sat at room temperature with moderate shaking for 90 minutes. After 90 minutes, the blocking buffer was removed and the cells were treated with a 1:500 dilution of the Anti-Asymmetric Di-Methyl Arginine Motif primary antibody (Cell Signaling Technology, #13522). Incubation with the primary antibody continued overnight at 4 degrees Celsius with no shaking.
On Day 4, the primary antibody solution was removed from the plate, and the cells were washed with 1×PBS/0.1% Tween 20. After washing, cells were given a secondary antibody mixture containing a 1:1000 dilution of IRDye 800 CW Anti-Rabbit antibody (LI-COR, 926-32211) and a 1:500 dilution of Cell Tag 700 Stain (LI-COR, 926-41090). The secondary antibody mixture remained on cells for 60 minutes with gentle shaking and protected from light.
(§2) After 60 minutes, the secondary antibody mixture was removed and the cells were again washed with 1×PBS/0.1% Tween 20. All wash buffer was then removed, and the plate was gently patted dry to remove excess solution. The plate was then read on the LI-COR Odyssey Classic Imaging System which provides results based on fluorescence. In this experiment, fluorescence occurred as a result of cellular, asymmetric arginine methylation. MS023 was given to cells for either 24 or 48 hours, with expectation for it to reduce cellular, asymmetric arginine methylation. Cell number per well was accounted for using the Cell Tag 700 Stain, which fluorescently labels total protein levels in a cell. To this effect, fluorescence from asymmetrical arginine methylation per well (800) was divided by fluorescence from the total protein level per well (700) to produce an outcome of 800/700.
On Day 1, 24 wells of the NSC-34 cells and 24 wells of the CHO cells were treated with the following concentrations of MS049: 0.2 μM, 1 μM, 2 μM, 10 μM, 20 μM, and 100 μM. The cells were then incubated overnight.
On Day 2, 18 wells of the untreated NSC-34 cells and 18 wells of the untreated CHO cells were treated with the same concentrations of MS049 as those on Day 1. This left 6 wells of each cell line that never received MS049. Once MS049 was added, the cells were incubated overnight.
as §2, with “MS049” for “MS023”, “To this effect, fluorescence from asymmetrical arginine methylation per well (800) was divided by fluorescence from the total protein level per well (700) to produce an outcome of 800/700.” left out

“Also recorded” adds a separate entry of the source.

Take `CNCCN1CCC(OCc2ccccc2)CC1` [MS049]: the “dose dependence of abrogation of GR15-induced cytotoxicity” value in data set [1] (3 μM GR15, 24 h, dose range of the example) is “dose-dependently abrogated”. For the same compound, the “abrogation of GR-induced toxicity” value was “partially abrogated” in data set [1] (3 μM GR15, 24 h, doses 0.2, 1, 2, 20 and 100 μM); “completely abrogated” in data set [1] (3 μM GR15, 24 h, doses 2 and 10 μM). The “abrogation of GR15-induced cytotoxicity” value in data set [1] (3 μM GR15, doses 1 and 20 μM) is given as “partially abrogated”. Moreover, in data set [1] (3 μM PR15, 24 h, dose range of the example), the “dose dependence of abrogation of PR15-induced cytotoxicity” value is reported as “dose-dependently abrogated”. The “abrogation of PR-induced toxicity” value in data set [1] (3 μM PR15, 24 h, doses 0.2, 1, 2, 20 and 100 μM) was “partially abrogated”; in data set [1] (3 μM PR15, 24 h, doses 2 and 10 μM), “completely abrogated”. Further, the “abrogation of PR15-induced cytotoxicity” value in data set [1] (3 μM PR15, doses 1 and 20 μM) is “partially abrogated”. Besides, the “toxicity independently of GR and PR treatment” value is listed as “did cause significant toxicity; also recorded: did cause significant cytotoxicity” in data set [1] (doses 100 and 20 μM); “not at other doses tested” in data set [1] (other doses tested (0.2, 1, 2, 10 μM)). Further, the “decrease of asymmetrical arginine methylation” value is reported as “approximately 17%” in data set [2] (1 μM, vs untreated cells) and around 39% in data set [2] (100 μM).
